# From article PMC12207589, “Exploring Linear mono-, bis- and tris-Acetylene Containing Agonists of the Human Olfactory Receptor OR1A1” (Journal of Medicinal Chemistry, 2025)
# Several values for one entry are separate records, joined by “and”; a condition that tells them apart may be missing. Identical values can stand only once. Entries after “also recorded” stand apart in the source; their conditions may differ.
# Assays:
# [1] = target: T1, human olfactory receptor OR1A1 (Homo sapiens, UniProt Q9P1Q5); assay: Dual-Glo luciferase assay of olfactory receptor activation (agonist dose-response); assay type: cell-based; details: for EC50: OR1A1 response, best-fit value with 95% confidence interval, EC50 = ligand concentration for half-maximal response; for agonist activity / response of OR1A1 (in words): luciferase assay, normalized responses
# T1 construct: expressed in transfected cells; host or cells: HEK293T-derived cells
# T1 sequence (Q9P1Q5 1-309): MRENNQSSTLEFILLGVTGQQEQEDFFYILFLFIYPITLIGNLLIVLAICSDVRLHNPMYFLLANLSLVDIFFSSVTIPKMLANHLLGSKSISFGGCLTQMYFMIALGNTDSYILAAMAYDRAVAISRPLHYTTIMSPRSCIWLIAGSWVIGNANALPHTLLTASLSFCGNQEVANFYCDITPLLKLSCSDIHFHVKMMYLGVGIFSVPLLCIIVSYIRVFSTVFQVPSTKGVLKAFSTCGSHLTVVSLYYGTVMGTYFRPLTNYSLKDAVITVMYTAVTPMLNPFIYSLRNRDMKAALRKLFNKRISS
# Description: Olfactory receptor activation was evaluated using the Dual-Glo Luciferase Assay System (Promega (Beijing) Biotech Co., Ltd., Beijing, China). HEK293T-derived cells were maintained in minimal essential medium (Sigma) containing 10% fetal bovine serum (Sigma) (M10), 500 µg/mL penicillin–streptomycin (Invitrogen), and 6 µg/mL amphotericin B (Sigma) in a 37 °C incubator with 5% CO2. After culturing to a desired confluence, the cells were plated on 96-well plates (Corning Inc., Kennebunk, ME, USA). For each 96-well plate, 1 μg of CRE-luciferase, 0.5 μg of pRL-SV40, 0.5 μg of OR, 0.5 μg of RTP1S, and 0.25 μg of M3R were transfected using the transfection reagent Lipofectamine2000 (Invitrogen, Life Technologies Corp., Carlsbad, CA, USA). Twenty-four hours post transfection, the transfection media were removed, and the cells were rinsed with 50 μL PBS buffer (pH 7.4) per well. The cells were then stimulated with 25 μL 1% (v/v) ligand samples diluted in CD293 stimulation medium (Gibco Brand, ThermoFisher Biochemical Products (Beijing) Co., Ltd., Beijing, China). Four hours post stimulation, firefly luciferase (FL) and Renilla luciferase (RL) activities were measured following manufacturer’s protocols, using a Synergy H1 plate reader (BioTek Instruments, Winooski, VT, USA). Normalized luciferase activity was calculated using the formula: FL/RLX-FL/RLXC, where FL/RLX is the response to the ligands, FL/RLXC is the basal value of the same OR. Each experiment was repeated at least 3 times and error bars indicate standard error mean. Data were analyzed with GraphPad Prism.
# OR1A1 olfactory receptor = details: cited from earlier work; for agonist quality on OR1A1 (in words): known OR1A1 agonists, Introduction and Figure 1, reference numbers not given; for EC50: enantiomers of citronellol on OR1A1, already reported, reference number not given
Compound,EC50 [1],agonist activity / response of OR1A1 (in words) [1],other results
C[C@@H](O)C#CC#Cc1ccc(C(C)(C)C)cc1 [(R)-21],7.45 µM and 7.41 µM,strongest agonist effect,–
CC(=O)c1ccc(C#CC#CC(C)(C)C)cc1 [compound 13],36.3 µM,activated OR1A1,–
"CCCCCC(=O)C(C)C(C)=O (centres unmarked) [compound 9, 3-methyl-2,4-nonanedione]",–,–,agonist quality on OR1A1 (in words) (OR1A1 olfactory receptor): extremely potent agonist
CC(=O)c1cccc(C#CC#CC#CC(C)(C)C)c1 [compound 19],–,did not result in an active compound; also recorded: weak agonist,–
C[C@H](O)C#CC#Cc1ccc(C(C)(C)C)cc1 [(S)-21],24 µM,–,–
CC(C)(C)C#CC#Cc1ccc2c(c1)COC2 [compound 18],–,displayed a stronger response,–
CC(=O)c1cccc(C#CC#CC(C)(C)C)c1 [compound 14],35.5 µM,activated OR1A1,–
CC(C)(C)c1ccc(C#CC#CCO)cc1 [compound 20],42.7 µM,strong agonist activity,–
"CC(=O)c1c(C)c([N+](=O)[O-])c(C(C)(C)C)c([N+](=O)[O-])c1C [compound 2, musk ketone]",–,–,agonist quality on OR1A1 (in words) (OR1A1 olfactory receptor): very poor agonists
CC(=O)C#CC#Cc1ccc(C(C)(C)C)cc1 [compound 15],–,essentially inactive,–
CC(C)(O)C#CC#Cc1ccc(C(C)(C)C)cc1 [compound 22],–,weakest agonist in this alcohol series,–
CC(C)(C)C#CC#Cc1ccc2c(c1)C(=O)CC2 [compound 16],–,not active,–
"CC(C)=CCC[C@H](C)CCO [(S)-7, citronellol]",–,–,EC50 (OR1A1 olfactory receptor): 92.6 µM
CC(O)C#CC#Cc1ccc(C(C)(C)C)cc1 (centres unmarked) [compound 21],43.7 µM,much stronger interaction with the OR1A1 receptor than the corresponding ketone 15,–
CC(C)(C)C#CC#Cc1cccc2c1CCC2=O [compound 17],–,micromolar range potency with modest to good agonist efficacy,–
"CC(C)=CCC[C@@H](C)CCO [(R)-7, citronellol]",–,–,EC50 (OR1A1 olfactory receptor): 82.5 µM
"C[C@@H]1CCCCCCCCCCCCC(=O)C1 [compound 1, muscone]",–,–,agonist quality on OR1A1 (in words) (OR1A1 olfactory receptor): very poor agonists
"CC(C)=CCCC(C)CCO (centres unmarked) [compound 7, citronellol]",–,–,agonist quality on OR1A1 (in words) (OR1A1 olfactory receptor): good agonist
